In ChEMBL document CHEMBL3885861, “Open TG-GATES”:

Species: Rattus norvegicus
Test: Open TG-GATES - Regimen: Daily Repeat
Assay type: toxicity, organism-based, Sprague-Dawley
Set-up: regimen Daily Repeat, gender Male, age 6 weeks
Conditions: in vivo, po, route gavage; for APTT / Bas / Eos / Fbg / Hb / Ht / Lym / MCH / MCHC / MCV / Mono / Neu / Plat / RBC / Ret / WBC: tissue Blood; for KIDNEY_L / KIDNEY_R / KIDNEY_TOTAL: tissue Kidney; for ALP / ALT / AST / BUN / CRE / DBIL / GLC / IP / K / LDH / Na / PL / RALB / TBIL / TC / TG / TP / gamma-GTP: tissue Plasma
[1] = 0 mg/kg, 72 h, dose level Control, time 3 day
[2] = 0 mg/kg, […], dose level Control, time 7 day
[3] = 0 mg/kg, […], dose level Control, time 14 day
[4] = 0 mg/kg, […], dose level Control, time 28 day
[5] = 10 mg/kg, 72 h, dose level Low, time 3 day
[6] = 10 mg/kg, […], dose level Low, time 7 day
[7] = 10 mg/kg, […], dose level Low, time 14 day
[8] = 10 mg/kg, […], dose level Low, time 28 day

CN(C)CCC=C1c2ccccc2COc2ccccc21 [DOXEPIN]
TERMINAL_BW [1]: 226.4 g
APTT [1]: 17.1 s
Bas [1]: 0%
Eos [1]: 1%
Fbg [1]: 281.6 mg/dL
Hb [1]: 13.4 g/dL
Ht [1]: 38.6%
Lym [1]: 78.6%
MCH [1]: 21.4 pg
MCHC [1]: 34.7%
MCV [1]: 61.7 fL
Mono [1]: 2.8%
Neu [1]: 17%
Plat [1]: 122.6 x10_4/uL
RBC [1]: 625.6 x10_4/ul
Ret [1]: 7.8%
WBC [1]: 81.7 x10_2/uL
KIDNEY_L [1]: 1 g
KIDNEY_R [1]: 1 g
KIDNEY_TOTAL [1]: 2 g
ALP [1]: 1760.6 IU/L
ALT [1]: 46 IU/L
AST [1]: 71.2 IU/L
BUN [1]: 15.6 mg/dL
CRE [1]: 0.2 mg/dL
DBIL [1]: 0.018 mg/dL
GLC [1]: 192 mg/dL
IP [1]: 8 mg/dL
K [1]: 4.3 meq/L
LDH [1]: 71.8 IU/L
Na [1]: 140.8 meq/L
PL [1]: 143 mg/dL
RALB [1]: 2.7 g/dL
TBIL [1]: 0.036 mg/dL
TC [1]: 79.6 mg/dL
TG [1]: 91.2 mg/dL
TP [1]: 5.7 g/dL
gamma-GTP [1]: 1.4 IU/L
TERMINAL_BW [2]: 255.5 g
TERMINAL_BW [3]: 310.4 g
TERMINAL_BW [4]: 419.8 g
APTT [2]: 15.9 s
Bas [2]: 0.2%
Eos [2]: 1%
Fbg [2]: 293.2 mg/dL
Hb [2]: 13.5 g/dL
Ht [2]: 38.5%
Lym [2]: 75.4%
MCH [2]: 21.1 pg
MCHC [2]: 35.1%
MCV [2]: 60 fL
Mono [2]: 3.6%
Neu [2]: 19%
Plat [2]: 116.5 x10_4/uL
RBC [2]: 641.8 x10_4/ul
Ret [2]: 5.2%
WBC [2]: 81 x10_2/uL
APTT [3]: 16.8 s
Bas [3]: 0%
Eos [3]: 0.8%
Fbg [3]: 280.2 mg/dL
Hb [3]: 14 g/dL
Ht [3]: 40.1%
Lym [3]: 77.2%
MCH [3]: 21.3 pg
MCHC [3]: 34.8%
MCV [3]: 61.1 fL
Mono [3]: 2.8%
Neu [3]: 18.4%
Plat [3]: 116.1 x10_4/uL
RBC [3]: 657.4 x10_4/ul
Ret [3]: 4.8%
WBC [3]: 103.9 x10_2/uL
APTT [4]: 16.6 s
Bas [4]: 0%
Eos [4]: 1.2%
Fbg [4]: 278.6 mg/dL
Hb [4]: 14.7 g/dL
Ht [4]: 41.9%
Lym [4]: 74.6%
MCH [4]: 20.2 pg
MCHC [4]: 35.3%
MCV [4]: 57.3 fL
Mono [4]: 3%
Neu [4]: 20.8%
Plat [4]: 102.4 x10_4/uL
RBC [4]: 731.6 x10_4/ul
Ret [4]: 3%
WBC [4]: 78.6 x10_2/uL
KIDNEY_L [2]: 1.1 g
KIDNEY_R [2]: 1.1 g
KIDNEY_TOTAL [2]: 2.2 g
KIDNEY_L [3]: 1.2 g
KIDNEY_R [3]: 1.2 g
KIDNEY_TOTAL [3]: 2.4 g
KIDNEY_L [4]: 1.4 g
KIDNEY_R [4]: 1.4 g
KIDNEY_TOTAL [4]: 2.7 g
ALP [2]: 1795.6 IU/L
ALT [2]: 46 IU/L
AST [2]: 74.4 IU/L
BUN [2]: 18.8 mg/dL
CRE [2]: 0.2 mg/dL
DBIL [2]: 0.018 mg/dL
GLC [2]: 186.4 mg/dL
IP [2]: 7 mg/dL
K [2]: 4.2 meq/L
LDH [2]: 67.2 IU/L
Na [2]: 141.4 meq/L
PL [2]: 154 mg/dL
RALB [2]: 2.7 g/dL
TBIL [2]: 0.03 mg/dL
TC [2]: 85 mg/dL
TG [2]: 112.2 mg/dL
TP [2]: 5.8 g/dL
gamma-GTP [2]: 1.6 IU/L
ALP [3]: 1467 IU/L
ALT [3]: 42.8 IU/L
AST [3]: 67.4 IU/L
BUN [3]: 18 mg/dL
CRE [3]: 0.2 mg/dL
DBIL [3]: 0.014 mg/dL
GLC [3]: 191.6 mg/dL
IP [3]: 7 mg/dL
K [3]: 4.1 meq/L
LDH [3]: 65.6 IU/L
Na [3]: 143.4 meq/L
PL [3]: 157 mg/dL
RALB [3]: 2.7 g/dL
TBIL [3]: 0.024 mg/dL
TC [3]: 77.4 mg/dL
TG [3]: 172.8 mg/dL
TP [3]: 6 g/dL
gamma-GTP [3]: 1 IU/L
ALP [4]: 1293.8 IU/L
ALT [4]: 43.6 IU/L
AST [4]: 65.4 IU/L
BUN [4]: 17.2 mg/dL
CRE [4]: 0.2 mg/dL
DBIL [4]: 0.024 mg/dL
GLC [4]: 180.8 mg/dL
IP [4]: 6.3 mg/dL
K [4]: 3.9 meq/L
LDH [4]: 59.6 IU/L
Na [4]: 143.4 meq/L
PL [4]: 166 mg/dL
RALB [4]: 2.9 g/dL
TBIL [4]: 0.034 mg/dL
TC [4]: 80.2 mg/dL
TG [4]: 212.2 mg/dL
TP [4]: 6.4 g/dL
gamma-GTP [4]: 1 IU/L
TERMINAL_BW [5]: 218 g
APTT [5]: 16.2 s
Bas [5]: 0%
Eos [5]: 1%
Fbg [5]: 283.2 mg/dL
Hb [5]: 13.4 g/dL
Ht [5]: 39.3%
Lym [5]: 78%
MCH [5]: 21.5 pg
MCHC [5]: 34.2%
MCV [5]: 62.8 fL
Mono [5]: 2.8%
Neu [5]: 18%
Plat [5]: 107 x10_4/uL
RBC [5]: 625.6 x10_4/ul
Ret [5]: 7.4%
WBC [5]: 67.2 x10_2/uL
KIDNEY_L [5]: 0.9 g
KIDNEY_R [5]: 0.9 g
KIDNEY_TOTAL [5]: 1.9 g
ALP [5]: 1531.8 IU/L
ALT [5]: 42.2 IU/L
AST [5]: 70.8 IU/L
BUN [5]: 15.4 mg/dL
CRE [5]: 0.2 mg/dL
DBIL [5]: 0.024 mg/dL
GLC [5]: 191 mg/dL
IP [5]: 7.7 mg/dL
K [5]: 4.3 meq/L
LDH [5]: 74.2 IU/L
Na [5]: 141.6 meq/L
PL [5]: 156.8 mg/dL
RALB [5]: 2.7 g/dL
TBIL [5]: 0.044 mg/dL
TC [5]: 85.8 mg/dL
TG [5]: 100.8 mg/dL
TP [5]: 5.8 g/dL
gamma-GTP [5]: 1.4 IU/L
TERMINAL_BW [6]: 254.8 g
TERMINAL_BW [7]: 315.1 g
TERMINAL_BW [8]: 390 g
APTT [6]: 16.3 s
Bas [6]: 0%
Eos [6]: 1%
Fbg [6]: 283.4 mg/dL
Hb [6]: 13.5 g/dL
Ht [6]: 38.8%
Lym [6]: 79.8%
MCH [6]: 21.5 pg
MCHC [6]: 34.8%
MCV [6]: 61.8 fL
Mono [6]: 3%
Neu [6]: 15.6%
Plat [6]: 115.8 x10_4/uL
RBC [6]: 627.6 x10_4/ul
Ret [6]: 6%
WBC [6]: 88.3 x10_2/uL
APTT [7]: 16.8 s
Bas [7]: 0%
Eos [7]: 1.2%
Fbg [7]: 296.8 mg/dL
Hb [7]: 14.1 g/dL
Ht [7]: 40.5%
Lym [7]: 75.4%
MCH [7]: 21.5 pg
MCHC [7]: 34.7%
MCV [7]: 61.8 fL
Mono [7]: 3%
Neu [7]: 20%
Plat [7]: 106.2 x10_4/uL
RBC [7]: 656.4 x10_4/ul
Ret [7]: 4.7%
WBC [7]: 76.1 x10_2/uL
APTT [8]: 16.2 s
Bas [8]: 0%
Eos [8]: 1.4%
Fbg [8]: 283.8 mg/dL
Hb [8]: 14.6 g/dL
Ht [8]: 41.3%
Lym [8]: 81.4%
MCH [8]: 19.8 pg
MCHC [8]: 35.4%
MCV [8]: 56 fL
Mono [8]: 2%
Neu [8]: 14.6%
Plat [8]: 109.1 x10_4/uL
RBC [8]: 737.6 x10_4/ul
Ret [8]: 2.4%
WBC [8]: 71.4 x10_2/uL
KIDNEY_L [6]: 1.1 g
KIDNEY_R [6]: 1.1 g
KIDNEY_TOTAL [6]: 2.2 g
KIDNEY_L [7]: 1.2 g
KIDNEY_R [7]: 1.2 g
KIDNEY_TOTAL [7]: 2.4 g
KIDNEY_L [8]: 1.3 g
KIDNEY_R [8]: 1.3 g
KIDNEY_TOTAL [8]: 2.6 g
ALP [6]: 1775.6 IU/L
ALT [6]: 51.6 IU/L
AST [6]: 84.2 IU/L
BUN [6]: 19.2 mg/dL
CRE [6]: 0.2 mg/dL
DBIL [6]: 0.024 mg/dL
GLC [6]: 191.2 mg/dL
IP [6]: 7.5 mg/dL
K [6]: 4.3 meq/L
LDH [6]: 148.2 IU/L
Na [6]: 142 meq/L
PL [6]: 156 mg/dL
RALB [6]: 2.6 g/dL
TBIL [6]: 0.04 mg/dL
TC [6]: 81 mg/dL
TG [6]: 135.2 mg/dL
TP [6]: 5.8 g/dL
gamma-GTP [6]: 1 IU/L
ALP [7]: 1686.4 IU/L
ALT [7]: 42.2 IU/L
AST [7]: 67.6 IU/L
BUN [7]: 18.4 mg/dL
CRE [7]: 0.2 mg/dL
DBIL [7]: 0.012 mg/dL
GLC [7]: 193.4 mg/dL
IP [7]: 7.4 mg/dL
K [7]: 4.4 meq/L
LDH [7]: 70.2 IU/L
Na [7]: 142.6 meq/L
PL [7]: 150.2 mg/dL
RALB [7]: 2.7 g/dL
TBIL [7]: 0.024 mg/dL
TC [7]: 73 mg/dL
TP [7]: 6 g/dL
gamma-GTP [7]: 1.2 IU/L
ALP [8]: 1247.4 IU/L
ALT [8]: 37.8 IU/L
AST [8]: 62 IU/L
BUN [8]: 16.4 mg/dL
CRE [8]: 0.2 mg/dL
DBIL [8]: 0.02 mg/dL
GLC [8]: 173.6 mg/dL
IP [8]: 5.6 mg/dL
K [8]: 4 meq/L
LDH [8]: 53 IU/L
Na [8]: 144 meq/L
PL [8]: 147.6 mg/dL
RALB [8]: 2.8 g/dL
TBIL [8]: 0.03 mg/dL
TC [8]: 74 mg/dL
TG [8]: 154.8 mg/dL
TP [8]: 6.3 g/dL
gamma-GTP [8]: 1.2 IU/L
